The results in this text go back to article PMC4064249, “Differences in proton pumping and Na/H exchange at the leaf cell tonoplast between a halophyte and a glycophyte” (AoB Plants, 2014).

One test relates to T1, V-H+-ATPase.
T1 construct: gene VHA-A
The conditions noted are these: ATP 0.05-1.5 mM, […] MgCl2, 100 mM KCl, MOPS-TRIS pH 7.0, 22 °C; control plants (10 mM NaCl); corrected for vesicle orientation. On the procedure: ATP-dependent H+ transport, ACMA fluorescence quenching, Michaelis-Menten fit on V-H+-ATPase | Kinetic analysis was performed by fitting a Michaelis–Menten curve through the data points

For the next test, the system named is T2, V-H+-PPase.
T2 construct: gene VHP1
The conditions noted are these: PPi 0.005-[…], […] MgCl2, 100 mM KCl, MOPS-TRIS pH 7.0, 22 °C, corrected for vesicle orientation. On the procedure:
PPi-dependent H+ transport, ACMA fluorescence quenching, Michaelis-Menten fit on V-H+-PPase | Kinetic analysis was performed by fitting a Michaelis–Menten curve through the data points

Molecules are shown by their SMILES. Like-named read-outs stand apart in the source and are kept apart here.

As usually defined, the Km is the concentration of substrate that gives half-maximal velocity. On to `Nc1ncnc2c1ncn2[C@@H]1O[C@H](COP(=O)(O)OP(=O)(O)OP(=O)(O)O)[C@@H](O)[C@H]1O` [ATP], for which, in the test with V-H+-ATPase, the Km is 250 ± 110 µM.

On to `O=P(O)(O)OP(=O)(O)O` [pyrophosphate], for which the Michaelis-Menten constant (Km) in the test with V-H+-PPase (control plants (0 mM NaCl)) was 43 ± 24 µM; with V-H+-PPase (control plants (10 mM NaCl)), 34 ± 14 µM.
